Reference: patent publication EP4516912A1, “HERBICIDE RESISTANT PLANTS” (Eberhard-Karls-Universität Tübingen, priority 2023, dated 2025)
“Also recorded” adds a separate entry of the source.

Experiments:
[1] = target: T1, mAtDHQS1 (Arabidopsis thaliana, UniProt Q8VYV7); assay: enzymatic assay with purified recombinant mature AtDHQS1; format: biochemical; details: 100 to 1000 µM; 50 ng purified recombinant enzyme; Figure 1B
T1 construct: The mature i.e. biologically relevant enzyme (mAtDHQS1) with 381 amino acids; (His)6 (C); made in house; host or cells: E. coli
T1 sequence (Q8VYV7 59-442): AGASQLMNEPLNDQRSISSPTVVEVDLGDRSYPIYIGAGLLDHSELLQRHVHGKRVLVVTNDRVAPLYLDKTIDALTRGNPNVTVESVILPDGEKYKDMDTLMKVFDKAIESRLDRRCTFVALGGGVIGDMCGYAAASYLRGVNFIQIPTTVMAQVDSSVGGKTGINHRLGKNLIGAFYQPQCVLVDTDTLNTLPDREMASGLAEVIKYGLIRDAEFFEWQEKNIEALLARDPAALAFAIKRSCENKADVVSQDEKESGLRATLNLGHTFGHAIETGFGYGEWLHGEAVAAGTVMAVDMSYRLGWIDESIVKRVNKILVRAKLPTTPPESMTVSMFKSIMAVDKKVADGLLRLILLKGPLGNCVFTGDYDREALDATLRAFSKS
Description: (§1) (A) Schematic representation of mDHSQ1 and pDHQS1 both containing a C-terminal (His)6 tag for purification after heterologous expression of the recombinant proteins in E.coli. aa: amino acid. (B) Relative activity of mDHQS1 (left) and pDHQS1 (right) in the presence of the indicated concentrations of 7dSh. The activity in the absence of 7dSh was set to 1. […] (A) MST fluorescence spectrum of RED dye-labelled mAtDHQS1 (50 nM) in the absence of DAHP (blue line, marked as line 1) or in the presence of 500 µM DAHP (green line, marked as line 2). […] (B) MST fluorescence spectrum of RED dye-labelled mAtDHQS1 (50 nM) in the absence of 7dSh (blue line marked as line 1) or in the presence of 500 µM 7dSh (green line marked as line 2). […] (C) MST fluorescence spectrum of RED dye-labelled mAtDHQS1 (50 nM) in the absence of 7dSh and DAHP (blue line, marked as line 1), in the presence of 250 µM DAHP (green line marked as line 2) or 250 µM DAHP and 250 µM 7dSh (red line marked as line 3). […] (B) As in (A) but the root length was quantified. n = 10 different, lower case letters mean statistically significant differences between the data sets (ANOVA test). (C) Subcellular localization of EGFP-tagged AtDHQS1 (lines 1-1 and 1-2) or EGFP-tagged AtDHQS2 (lines 2-1 and 2-2) in chloroplasts (red fluorescence) of 3-days-old transgenic Arabidopsis plants. […]

[2] = target: T2, pAtDHQS1 (Arabidopsis thaliana, UniProt Q8VYV7); assay: enzymatic assay with purified recombinant AtDHQS1 still containing the transit peptide; format: biochemical; details: 100 to 1000 µM; 50 ng purified recombinant enzyme; Figure 1B
T2 construct: a version that still has the 61 amino acid long transit peptide for plastid import (pAtDHQS1); (His)6 (C); made in house; host or cells: E. coli
T2 sequence (Q8VYV7 59-442): T1 sequence (Q8VYV7 59-442)
Description: as §1

[3] = target: T1, mAtDHQS1; assay: MicroScale Thermophoresis (MST) binding and competition
Description: (§2) (A) Schematic representation of mDHSQ1 and pDHQS1 both containing a C-terminal (His)6 tag for purification after heterologous expression of the recombinant proteins in E.coli. aa: amino acid. (B) Relative activity of mDHQS1 (left) and pDHQS1 (right) in the presence of the indicated concentrations of 7dSh. The activity in the absence of 7dSh was set to 1. […] (A) MST fluorescence spectrum of RED dye-labelled mAtDHQS1 (50 nM) in the absence of DAHP (blue line, marked as line 1) or in the presence of 500 µM DAHP (green line, marked as line 2). […] (B) MST fluorescence spectrum of RED dye-labelled mAtDHQS1 (50 nM) in the absence of 7dSh (blue line marked as line 1) or in the presence of 500 µM 7dSh (green line marked as line 2). No downward shift is detectable, showing that there is no binding. (C) MST fluorescence spectrum of RED dye-labelled mAtDHQS1 (50 nM) in the absence of 7dSh and DAHP (blue line, marked as line 1), in the presence of 250 µM DAHP (green line marked as line 2) or 250 µM DAHP and 250 µM 7dSh (red line marked as line 3). […] (A) Growth of 3-days-old wild type plants (Col-0) or two independent transgenic lines each ectopically overexpressing either EGFP-tagged AtDHQS1 (1-1, 1-2) or EGFP-tagged AtDHQS2 (2-1, 2-2) after 3 days on control plates (mock) or on plates containing 250 µM 7dSh. (B) As in (A) but the root length was quantified. n = 10 different, lower case letters mean statistically significant differences between the data sets (ANOVA test). (C) Subcellular localization of EGFP-tagged AtDHQS1 (lines 1-1 and 1-2) or EGFP-tagged AtDHQS2 (lines 2-1 and 2-2) in chloroplasts (red fluorescence) of 3-days-old transgenic Arabidopsis plants. […] (Left) relative AtDHQS1 transcript levels in the indicated transgenic Arabidopsis lines as determined by qRT-PCR using AtDHQS1 gene-specific primers. AtDHQS1 transcript levels are about ten times higher than in wild type (Col-0). (Right) relative AtDHQS2 transcript levels in the indicated transgenic Arabidopsis lines as determined by qRT-PCR using AtDHQS2 gene-specific primers. […]

[4] = system: Arabidopsis wild type seedlings or transgenic lines overexpressing AtDHQS1-GFP or AtDHQS2-GFP; assay: comparative root growth experiments on growth medium; format: in vivo, Arabidopsis thaliana; details: 250 µM
Description: as §2

[5] = system: Arabidopsis thaliana, Brassica napus and Hordeum vulgare seedlings; assay: sedoheptulose accumulation in seedling extracts after exposure; format: in vivo; details: extracts after exposure of seedlings of the three species
Description: The finding that AtDHQS1 is not the target of 7dSh, but that the overexpression of AtDHQS1 (-GFP) causes partial tolerance to 7dSh in Arabidopsis seems contradictory, and is in stark contrast to the findings of the prior art. Without being bound to theory, overexpression of AtDHQS1 could lead to a metabolic imbalance in the plant, and thereby could indirectly influence the amount, constitution, intracellular localization, biochemical and physiological activity of counteracting enzymes or proteins, one of which potentially being the true target for 7dSh. This hypothesis is in agreement with a recent finding that a strong accumulation of sedoheptulose was detectable in the extracts after exposure of Arabidopsis thaliana, Brassica napus and Hordeum vulgare seedlings to 7dSh. The accumulation was up to 60 times higher than in the untreated seedlings of the three species. Sedoheptulose is a ketoheptose - a monosaccharide with seven carbon atoms and a ketone functional group and one of the few heptoses found in nature. Sedoheptulose is not a metabolite of the shikimate pathway and can in no way serve as substrate for AtDHQS1.

[6] = system: thale cress (Arabidopsis thaliana), rapeseed/canola (Brassica napus), barley (Hordeum vulgare), maize (Zea mays), red-root amaranth (Amaranthus retroflexus) …; assay: herbicidal effect in growth medium on model and crop plants and weeds (root growth); format: in vivo; details: tested in parallel
[7] = substrate: O=C(O)C(=O)C[C@@H](O)[C@H](O)[C@H](O)COP(=O)(O)O; assay: enzymatic assay with purified recombinant mature AtDHQS1; format: biochemical, Arabidopsis thaliana; details: other: substrate DAHP; mAtDHQS1
Description: as §1

[8] = substrate: O=C(O)C(=O)C[C@@H](O)[C@H](O)[C@H](O)COP(=O)(O)O; assay: enzymatic assay with purified recombinant AtDHQS1 still containing the transit peptide; format: biochemical, Arabidopsis thaliana; details: other: substrate DAHP; pAtDHQS1
Description: as §1

[9] = 3-days-old seedlings, two independent lines

For `C[C@@H](O)[C@@H](O)[C@@H](O)[C@H](O)C(=O)CO` [7dSh, 7-deoxy-sedoheptulose], the “effect on the activity of mAtDHQS1” value [1] was “not inhibited; also recorded: no effect”, the “effect on the activity of pAtDHQS1” value [2] was “not inhibited; also recorded: no effect” and the “competition with DAHP for binding to mAtDHQS1 (MST)” value ([3]; RED dye-labelled mAtDHQS1 (50 nM), 250 µM DAHP and 250 µM 7dSh, Fig. 2 C) was “no competition; also recorded: not able to displace DAHP”. The “binding to mAtDHQS1 (MST)” value ([3]; RED dye-labelled mAtDHQS1 (50 nM), 500 µM ligand, Fig. 2 A/B) was “no binding; also recorded: no interaction”, the “root growth of wild type seedlings” value ([4]; 3-days-old Arabidopsis wild type (Col-0) seedlings, 3 days) was “completely inhibited” and the “tolerance of seedlings of AtDHQS2-GFP transgenic lines” value [4, 9] was “no tolerance”. For the same molecule, the “tolerance of seedlings of transgenic lines overexpressing AtDHQS1-GFP” value [4, 9] was “partial but not complete tolerance” and the accumulation of sedoheptulose [5] was “up to 60 times higher than in the untreated seedlings”.

Work on `O=C(O)C(=O)C[C@@H](O)[C@H](O)[C@H](O)COP(=O)(O)O` [DAHP, 3-deoxy-D-arabino-heptulosonate-7-phosphate, reference compound] yielded a Kd [3] of 33 µM.

With `O=C(O)CNCP(=O)(O)O` [glyphosate] the “effective concentrations compared with 7dSh” value [6] was “comparable”.

B1: mAtDHQS1 (Arabidopsis thaliana) (protein)
chain: T1 sequence (Q8VYV7 59-442)
notes: The mature i.e. biologically relevant enzyme (mAtDHQS1) with 381 amino acids; (His)6 (C); made in house; host or cells: E. coli
Work on B1 yielded a Km [7] of 8.3 µM.

B2: pAtDHQS1 (Arabidopsis thaliana) (protein)
chain: T1 sequence (Q8VYV7 59-442)
notes: a version that still has the 61 amino acid long transit peptide for plastid import (pAtDHQS1); (His)6 (C); made in house; host or cells: E. coli
In the case of B2, the Km [8] is reported as 2.9 µM.
